The Ki is a dissociation constant, usually derived from enzyme kinetics or from competition with a known ligand. A lower Ki goes with a stronger hold on the target.

In ChEMBL document CHEMBL1155922, “Epiboxidine and novel-related analogues: a convenient synthetic approach and estimation of their affinity at neuronal nicotinic acetylcholine receptor subtypes” (Bioorg Med Chem Lett, 2008) one finds Ki and Ratio Ki data, which are given here for four molecules.

The target in assay [1] is Neuronal acetylcholine receptor subunit alpha-7 (Rattus norvegicus, UniProt Q05941). Kind of assay: Displacement of [125I]alpha-bungarotoxin from alpha7 nAChR in rat cortical membrane. In kind it is cell membranes. Background: Loss of bound radioactivity is the signal in a displacement assay; it reports binding, not function.
Chain of Neuronal acetylcholine receptor subunit alpha-7 (Q05941 whole entry): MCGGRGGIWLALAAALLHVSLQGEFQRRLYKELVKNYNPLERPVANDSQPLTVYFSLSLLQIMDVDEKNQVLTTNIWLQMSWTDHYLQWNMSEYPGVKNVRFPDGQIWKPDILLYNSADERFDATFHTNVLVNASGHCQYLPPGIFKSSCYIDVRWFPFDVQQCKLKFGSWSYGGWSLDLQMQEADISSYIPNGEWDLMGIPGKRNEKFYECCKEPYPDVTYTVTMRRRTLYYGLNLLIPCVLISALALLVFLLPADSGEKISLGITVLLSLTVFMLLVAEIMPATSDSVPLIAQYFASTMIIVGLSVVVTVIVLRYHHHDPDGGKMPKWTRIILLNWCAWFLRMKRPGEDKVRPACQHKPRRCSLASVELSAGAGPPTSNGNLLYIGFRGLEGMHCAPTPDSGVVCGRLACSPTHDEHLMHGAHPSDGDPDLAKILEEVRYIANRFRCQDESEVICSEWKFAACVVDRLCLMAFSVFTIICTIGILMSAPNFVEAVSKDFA
Another assay is filed under the species Rattus norvegicus. The experiment in a line: Selectivity ratio of Ki for rat alpha4beta2 nAChR to Ki for rat alpha7 nAChR.
The target of assay [2] is T1, Neuronal acetylcholine receptor; alpha4/beta2 (Rattus norvegicus, UniProt P09483+P12390). The experiment in a line: Displacement of [3H]epibatidine from alpha4beta2 nAChR in rat cortical membrane. Type of assay: cell membranes.
T1 sequence (P09483 whole entry): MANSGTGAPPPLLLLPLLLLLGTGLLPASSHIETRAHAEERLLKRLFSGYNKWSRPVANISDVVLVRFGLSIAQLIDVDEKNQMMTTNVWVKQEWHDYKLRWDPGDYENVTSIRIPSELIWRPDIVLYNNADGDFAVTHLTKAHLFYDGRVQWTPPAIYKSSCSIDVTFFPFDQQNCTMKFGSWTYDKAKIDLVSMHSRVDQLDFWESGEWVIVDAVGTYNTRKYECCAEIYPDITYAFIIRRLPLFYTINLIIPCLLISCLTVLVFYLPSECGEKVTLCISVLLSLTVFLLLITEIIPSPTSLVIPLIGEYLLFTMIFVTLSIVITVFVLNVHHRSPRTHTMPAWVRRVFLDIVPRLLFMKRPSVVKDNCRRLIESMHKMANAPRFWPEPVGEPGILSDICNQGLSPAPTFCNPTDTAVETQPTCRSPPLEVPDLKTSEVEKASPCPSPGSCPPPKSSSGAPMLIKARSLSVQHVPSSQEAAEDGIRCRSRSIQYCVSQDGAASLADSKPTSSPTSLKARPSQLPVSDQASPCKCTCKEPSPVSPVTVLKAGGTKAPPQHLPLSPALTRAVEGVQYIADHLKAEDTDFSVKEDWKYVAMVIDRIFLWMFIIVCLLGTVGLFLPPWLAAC
T1 sequence (P12390 whole entry): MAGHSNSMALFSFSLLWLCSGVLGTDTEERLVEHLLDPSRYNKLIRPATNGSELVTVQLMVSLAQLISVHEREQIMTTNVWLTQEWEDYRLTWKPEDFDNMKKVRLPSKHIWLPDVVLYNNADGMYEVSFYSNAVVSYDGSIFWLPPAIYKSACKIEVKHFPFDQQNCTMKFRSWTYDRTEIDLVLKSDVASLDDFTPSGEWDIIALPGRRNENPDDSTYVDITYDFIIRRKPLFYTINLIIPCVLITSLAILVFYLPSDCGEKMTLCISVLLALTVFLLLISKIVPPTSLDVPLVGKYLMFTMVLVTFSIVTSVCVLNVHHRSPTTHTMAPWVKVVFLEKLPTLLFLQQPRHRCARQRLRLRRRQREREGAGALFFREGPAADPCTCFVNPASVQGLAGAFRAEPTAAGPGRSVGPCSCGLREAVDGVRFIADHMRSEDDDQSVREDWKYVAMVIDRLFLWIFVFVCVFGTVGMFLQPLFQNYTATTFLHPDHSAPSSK
In assay [3] the target is T2, Neuronal acetylcholine receptor; alpha4/beta2 (Homo sapiens, UniProt P17787+P43681). Kind of assay: Binding affinity to alpha4beta2 nAChR. In kind it is protein-complex assay.
T2 sequence (P17787 whole entry): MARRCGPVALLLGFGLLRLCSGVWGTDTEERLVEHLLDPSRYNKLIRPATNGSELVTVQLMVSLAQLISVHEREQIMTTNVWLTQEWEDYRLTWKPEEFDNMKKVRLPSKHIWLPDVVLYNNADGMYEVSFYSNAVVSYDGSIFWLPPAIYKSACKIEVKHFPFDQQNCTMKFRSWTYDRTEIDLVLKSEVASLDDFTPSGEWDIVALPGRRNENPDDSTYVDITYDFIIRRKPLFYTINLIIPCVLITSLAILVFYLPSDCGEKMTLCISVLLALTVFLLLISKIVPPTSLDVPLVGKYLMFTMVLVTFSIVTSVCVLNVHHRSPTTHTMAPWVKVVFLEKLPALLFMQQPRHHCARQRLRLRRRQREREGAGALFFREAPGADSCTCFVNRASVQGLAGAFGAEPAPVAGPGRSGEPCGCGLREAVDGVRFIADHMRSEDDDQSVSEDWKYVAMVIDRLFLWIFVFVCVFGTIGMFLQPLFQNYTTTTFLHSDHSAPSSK
T2 sequence (P43681 whole entry): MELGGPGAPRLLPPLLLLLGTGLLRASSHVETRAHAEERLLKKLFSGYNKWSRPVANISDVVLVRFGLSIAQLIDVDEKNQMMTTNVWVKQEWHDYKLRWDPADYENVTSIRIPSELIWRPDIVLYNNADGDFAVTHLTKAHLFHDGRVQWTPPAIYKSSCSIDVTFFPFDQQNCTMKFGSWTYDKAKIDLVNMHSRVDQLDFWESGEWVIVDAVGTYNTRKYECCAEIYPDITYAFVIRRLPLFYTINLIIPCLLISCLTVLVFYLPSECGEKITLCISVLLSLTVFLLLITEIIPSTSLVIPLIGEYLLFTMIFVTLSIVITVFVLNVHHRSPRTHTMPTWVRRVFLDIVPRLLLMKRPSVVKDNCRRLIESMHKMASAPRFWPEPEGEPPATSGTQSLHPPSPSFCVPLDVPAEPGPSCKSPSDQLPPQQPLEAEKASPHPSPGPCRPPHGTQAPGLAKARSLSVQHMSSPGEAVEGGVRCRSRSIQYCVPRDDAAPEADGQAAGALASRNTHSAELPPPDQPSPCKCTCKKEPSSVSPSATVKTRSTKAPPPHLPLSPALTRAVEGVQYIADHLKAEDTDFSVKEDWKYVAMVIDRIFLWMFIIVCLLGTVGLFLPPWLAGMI
Assay [4] has as its target T2, Neuronal acetylcholine receptor; alpha4/beta2. The experiment in a line: Displacement of [3H]cystisine from alpha4beta2 nAChR. In kind it is protein-complex assay.
Assay [5] concerns the target T1, Neuronal acetylcholine receptor; alpha4/beta2. Kind of assay: Displacement of [3H]nicotine from alpha4beta2 nAChR in rat cerebral membrane. In kind it is cell membranes.

For the molecule `Cc1cc(C2=CC3CCC2N3)on1` (racemic), the Ki in assay [1] was found to be 1.6 µM; in assay [2], 0.05 µM. In addition, the Ratio Ki in the assay listed under Rattus norvegicus came to 32.

On to `Cc1cc(C2=CC3CCC2N3C)on1` (racemic), for which the Ki came out at 0.394 µM in assay [1] and 0.514 µM in assay [2].

Take `Cc1cc([C@@H]2C[C@H]3CC[C@H]2N3)on1` (racemic) [ENDO-EPIBOXIDINE]: the Ki was 0.23 µM in assay [1] and 0.07 µM in assay [2].

Consider `Cc1cc([C@H]2C[C@H]3CC[C@H]2N3)on1` (racemic) [EXO-EPIBOXIDINE], for which the Ki in assay [3] was determined as 0.00046 µM; in assay [1], 0.006 µM; in assay [4], 0.00133 µM; in assay [5] it was 0.0006 µM; in assay [2], 0.0004 µM. Further, the Ratio Ki in the assay filed under Rattus norvegicus was found to be 15.
